This is an account of results in patent US9133230B2, “Hydrazone derivatives having potent antitumor activity toward multi-drug resistant tumor cells” (THE UNITED STATES OF AMERICA AS REPRESENTED BY THE …, priority 2011, dated 2015).

Data set [1] deals with human myelogenous leukemia K562. Description: MTS cytotoxicity assay, K562. The format is cell-based. Here is the method:
(§1) In order to obtain information about the growth-inhibiting action of hydrazones reported in the present invention on tumor cells, growth inhibition was assessed for the following human tumor cell lines: human myelogenous leukemia K562, human cervical adenocarcinoma HeLa, human colon adenocarcinoma Caco-2, human colon carcinoma HT-29, human colon carcinoma HCT-15, and human breast carcinoma MCF-7.
(§2) The K562, HeLa, HT-29, HCT-15, Caco-2, and MCF-7 cell lines were obtained from the American type Culture Collection (ATCC, Manassas, Va.). K562 cells were maintained in RPMI 1640 medium (Gibco/Life Technologies, Gaithersburg, Md.) containing 10% heat-inactivated fetal bovine serum (FBS) (Atlanta Biologicals, Atlanta, Ga.) and 10000 U/L penicillin and 50 mg/L streptomycin. HeLa, HT-29, HCT-15, Caco-2 and MCF-7 cells were maintained in MEM with Earl's balanced salts, 10% FBS, penicillin, and streptomycin as above. Logarithmically growing HT-29, Caco-2, and MCF-7 cells were incubated with 0.05% trypsin containing 1 mM EDTA at 37° C. for about 5 min until cells were nonadherent and formed a single cell suspension. Trypsin activity was neutralized by adding 20-fold excess of the serum-containing medium. Cells were cultured at 37° C. in an atmosphere of air and 5% CO2.
(§3) Cytotoxicity assays were conducted by tetrazolium reduction of 3-(4,5-dimethylthiazol-2-yl)-5-(3-carboxymethoxyphenyl)-2-(4-sulfophenyl)-2H-tetrazolium (MTS) with N-methylphenazonium methyl sulfate (PMS) (CellTiter Assay, Promega, Madison, Wis.). Logarithmically growing cells were plated in 0.1 mL aliquots in 96-well microtiter plates. Cells were plated at an initial density of about 5000 cells/mL and allowed to acclimatize for 24 h. Cell suspensions were treated with various dilutions of compounds in triplicate, mixed well, and allowed to incubate for 48 h at 37° C. in an atmosphere of air and 5% CO2. To the cell suspension was added 20 μL of tetrazolium reagent, the mixture was incubated for 2 h at 37° C. in an atmosphere of air and 5% CO2, and absorbance at 490 nm was read by microplate reader. Control plates with serial dilutions of cell types were counted as a control for the assay. In all cases, controls indicated a linear response versus cell number, R^2≧0.99.

Data set [2] deals with human cervical adenocarcinoma HeLa. Description: MTS cytotoxicity assay, HeLa. Format: cell-based. To be noted: 48 h incubation. The method, then:
as §1, §2, §3

Data set [3] relates to human colon carcinoma HT-29. The data set can be described thus: MTS cytotoxicity assay, HT-29. Format: cell-based. The method, then: as §1, §2, §3
Data set [4] has as its system human colon carcinoma HCT-15. The data set can be described thus: MTS cytotoxicity assay, HCT-15. Format: cell-based. The method, then:
as §1, §2, §3

Data set [5] has as its system human colon adenocarcinoma Caco-2. Description: MTS cytotoxicity assay, Caco-2. The format is cell-based. Here is the method: as §1, §2, §3
The subject of data set [6] is human breast carcinoma MCF-7. Description: MTS cytotoxicity assay, MCF-7. Format: cell-based. The method, then: as §1, §2, §3
In data set [7] the test system is leukemia cell lines. Description: NCI 60 human tumor cell line screen, leukemia. Format: cell-based. To be noted: arithmetic mean of two to nine cancer cell lines, read-out: Inhibitory concentration GI50, leukemia. The source says:
(§4) Selected compounds were submitted for testing in the organ-specific panel of human tumor cell lines at the National Cancer Institute, Bethesda, Md. This screen utilized 60 human tumor cell lines, representing leukemia, melanoma, and cancers of the lung, colon, brain, ovary, kidney, prostate, and breast (Boyd, M. R., “Status of the NCl preclinical antitumor drug discovery screen”. In Principles and practice of oncology updates; De Vita, V. T., Jr. Hellman, S., Rosenberg, S. A., Eds.; Lippincott: Philadelphia, Pa., 1989; Vol. 3, pp 1-12).
(§5) The MG MID value is the average of the GI50 values for all the cell lines tested for drug concentrations in the range of 10^−4-10^−8 M (See website domain: dtp.nci.nih.gov/dtp).

Data set [8] has as its system nonsmall cell lung cancer cell lines. Description: NCI 60 human tumor cell line screen, NSCL. The format is cell-based. To be noted: arithmetic mean of two to nine cancer cell lines, read-out: Inhibitory concentration GI50, NSCL.
From the text: as §4, §5

Data set [9] relates to colon cancer cell lines. The data set can be described thus: NCI 60 human tumor cell line screen, colon. To be noted: arithmetic mean of two to nine cancer cell lines, read-out: Inhibitory concentration GI50, colon. Format: cell-based.
From the text: as §4, §5

The test system of data set [10] is CNS cancer cell lines. The data set can be described thus: NCI 60 human tumor cell line screen, CNS. The format is cell-based. As to conditions: arithmetic mean of two to nine cancer cell lines, read-out: Inhibitory concentration GI50, CNS.
From the text: as §4, §5

For data set [11], the system named is melanoma cell lines. The data set can be described thus: NCI 60 human tumor cell line screen, melanoma. Format: cell-based. As to conditions: arithmetic mean of two to nine cancer cell lines, read-out: Inhibitory concentration GI50, melanoma.
From the text: as §4, §5

The subject of data set [12] is ovarian cancer cell lines. Description: NCI 60 human tumor cell line screen, ovarian. Format: cell-based. To be noted: arithmetic mean of two to nine cancer cell lines, read-out: Inhibitory concentration GI50, ovarian.
From the text: as §4, §5

Data set [13] deals with renal cancer cell lines. Description: NCI 60 human tumor cell line screen, renal. The format is cell-based. As to conditions: arithmetic mean of two to nine cancer cell lines, read-out: Inhibitory concentration GI50, renal.
From the text: as §4, §5

In data set [14] the test system is prostate cancer cell lines. Description: NCI 60 human tumor cell line screen, prostate. The format is cell-based. As to conditions: arithmetic mean of two to nine cancer cell lines, read-out: Inhibitory concentration GI50, prostrate.
From the text: as §4, §5

In data set [15] the test system is breast cancer cell lines. Description: NCI 60 human tumor cell line screen, breast. The format is cell-based. As to conditions: arithmetic mean of two to nine cancer cell lines, read-out: Inhibitory concentration GI50, breast.
From the text: as §4, §5

In data set [16] the test system is 60 human tumor cell lines. Description: NCI 60 human tumor cell line screen, all cell lines. As to conditions: for cells found to be the most sensitive: NCI screen, by cancer type; for mean GI50 (MG-MID): average of the GI50 values for all the cell lines tested, drug concentrations 10^−4-10^−8 M, read-out: MG-MID (mean graph midpoint). The format is cell-based.
From the text: as §4, §5

The subject of data set [17] is HL60. Description: MTS cytotoxicity on MDR tumor cells, HL60. The format is cell-based. To be noted: 72 hr incubation.
In data set [18] the test system is HL60-VCR. Description: MTS cytotoxicity on MDR tumor cells, HL60-VCR. Format: cell-based. As to conditions: Vincristine (VCR) resistant, 72 hr incubation.
The subject of data set [19] is human colorectal carcinoma HT29. The data set can be described thus: Western blot of signal transduction pathways in HT29 cells. The format is cell-based. As to conditions: HT29, IC50 dose. Here is the method: The newly synthesized hydrazones RPC038, RPC042, and RPC046 had shown anti-tumor activity against 60 human cancer cell lines panel of the National Cancer Institute and on multi-drug resistant cell lines. The present studies were conducted to evaluate their action on signal transduction pathways in human colorectal carcinoma HT29. All the three compounds were examined at their IC50 doses.
Human colorectal carcinoma HT29 cells were obtained from the National Cancer Institute, Bethesda, Md., USA, and maintained in 5% CO2 at 37° C. in minimum essential media (Life Technologies, Inc., Grand Island, N.Y., USA) supplemented with 1% penicillin, streptomycin (Invitrogen, Carlsbad, Calif., USA), and 10% fetal bovine serum for optimal growth. HT29 cells (1×10^6) were plated in […], and 24 h later, fresh media was added and treated with the RPC038, RPC042 and RPC046 for indicated time points (2, 4, 8, 16 and 24 h). The cells were then washed with cold phosphate buffered saline (PBS) and taken in 1 ml PBS on ice and centrifuged at 4° C. The pellet was resuspended in appropriate volumes of radio immunoprecipitation assay buffer with protease inhibitor, kept on ice for 45 min and subsequently centrifuged at 4° C. An aliquot of supernatant (protein extract) was used to estimate the protein concentration. An aliquot of protein extract (40 μg) was subjected to Western blot analysis on a 12% polyacrylamide gel and transferred to nitrocellulose membrane. Blots were blocked, incubated with primary anti-pMEK, pERK, pJNK, pcjun, ERK, JNK, Cjun, Caspase-8, Caspase-6, PARP cleavage, or GAPDH antibodies (Cell Signaling Technology, Danvers, Mass.) and then conjugated with a secondary anti-mouse or an anti-rabbit horseradish […] antibody, and detected by ChemiDoc™ XRS+ System with Image Lab™ Software.

Data set [20] shares this test system. Description: Annexin-V FACS analysis of apoptosis. Format: cell-based. As to conditions: FIGS. 3 and 4, treated versus control cells. Here is the method:
This activation was through ERK signaling and not through JNK signaling, resulting in PARP cleavage after 16 h. […] Activation of NFkB (p50) was also observed following treatment with these compounds.

Data set [21] has the same test system. The data set can be described thus: Western blot of signal transduction pathways in HT29 cells. The format is cell-based. To be noted: HT29, IC50 dose. The source holds these as a separate data set.
For data set [22], the system named is KB-A1000. To be noted: MDR cell line characterisation; cited from earlier work.
Data set [23] concerns HL60-VCR. To be noted: MDR cell line characterisation; cited from earlier work.

Read-outs that look alike come from different tables or passages of the source.

Regarding `OC[C@H]1OC(n2cnc3c(NN=Cc4ccccn4)ncnc32)[C@H](O)[C@@H]1O` (stereo partly shown) [I-9], the GI50 in data set [1] (48 h incubation) is 1500 nM; in data set [2] it was 1200 nM; in data set [3] (48 h incubation) it was 2000 nM; in [4] (48 h incubation), less than 1000 nM; in [5] (48 h incubation) it was 400 nM; in data set [6] (48 h incubation) it was 2000 nM. For the same molecule, the GI50 in data set [7] is 116 nM; in data set [8], 269 nM; in data set [9], 251 nM; in data set [10], 271 nM; in data set [11] it was 347 nM; in [12], 196 nM. Further, the GI50 in data set [13] was found to be 219 nM; in data set [14], 137 nM; in data set [15], 250 nM; in data set [17] (Vincristine (VCR) sensitive), 1000 nM; in [18], 1500 nM. Also, in data set [16], the “cells found to be the most sensitive” value is “leukemia, prostate, ovarian, and renal cancer cell lines”. In addition, the mean GI50 (MG-MID) in data set [16] was 228 nM. Moreover, the “phosphorylation of ERK (time)” value in data set [19] (Western blot pERK) is given as 4 h. In addition, in data set [19] (Western blot pJNK (results not shown)), the “phosphorylation of JNK” value is “without phosphorylation of JNK”. Also, the “MEK activation (time)” value in [19] (Western blot pMEK) turned out to be 2 h. In addition, the “activation of cjun (time)” value in data set [19] (Western blot pcjun) is reported as 6 h. The Caspase activation entry in [19] (initial studies) was “Caspase-3 activation through Caspase-6 and not through Caspase-8”. For the same molecule, the “Apoptosis (Annexin-V, FACS analysis)” value in [20] is listed as “Apoptosis was also established”. Besides, in data set [21], the “Activation of NFkB (p50)” value is “observed”.

On to `CC(C)=NNc1ncnc2c1ncn2C1O[C@H](CO)[C@@H](O)[C@H]1O` (stereo partly drawn) [I-12, (2R,3S,4R)-2-(hydroxymethyl)-5-(6-(2-(propan-2-ylidene)hydrazinyl)-9H-purin-9-yl)tetrahydrofuran-3,4-diol], for which the GI50 was found to be 300 nM in data set [1] (Homo sapiens, K562, 48 h incubation); 600 nM in data set [2] (Homo sapiens, HeLa); 1600 nM in [3] (Homo sapiens, HT-29, 48 h incubation); 2800 nM in [4] (Homo sapiens, HCT-15, 48 h incubation); 200 nM in data set [5] (Homo sapiens, Caco-2, 48 h incubation); 200 nM in [6] (Homo sapiens, MCF7, 48 h incubation). Besides, the GI50 is 1270 nM in [7] (Homo sapiens); 786 nM in [8] (Homo sapiens); 497 nM in data set [9] (Homo sapiens); 1200 nM in [10] (Homo sapiens); 1900 nM in data set [11] (Homo sapiens); 447 nM in data set [12] (Homo sapiens). Besides, the GI50 was 516 nM in data set [13] (Homo sapiens); 363 nM in [14] (Homo sapiens); 751 nM in [15] (Homo sapiens); 1800 nM in [17] (Homo sapiens, HL-60, Vincristine (VCR) sensitive); 2200 nM in data set [18] (HL60/VCR). Besides, the mean GI50 (MG-MID) in data set [16] (Homo sapiens) was 847 nM. For the same molecule, the “cells found to be the most sensitive” value in data set [16] is “prostate, ovarian, colon, and renal cancer cell lines”.

Take `COc1cccc2c1C(=O)c1c(O)c3c(c(O)c1C2=O)C[C@@](O)(C(=O)CO)C[C@@H]3O[C@H]1C[C@H](N)[C@H](O)[C@H](C)O1` [doxorubicine]: in data set [22], the “resistance expressed by KB-A1000” value is reported as 97 fold. Further, the “resistance expressed by HL60-VCR” value in [23] was 8 fold.

On to `CC[C@]1(O)C[C@@H]2CN(CCc3c([nH]c4ccccc34)[C@@](C(=O)OC)(c3cc4c(cc3OC)N(C)[C@H]3[C@@](O)(C(=O)OC)[C@H](OC(C)=O)[C@]5(CC)C=CCN6CC[C@]43[C@@H]65)C2)C1` [vinblastine], for which the “resistance expressed by KB-A1000” value in data set [22] was 43 fold. Besides, in [23], the “resistance expressed by HL60-VCR” value was 620 fold.
